Legend:
Type in all cases: cell-based
MRGPRX2 [1] = biological target: T1, MRGPRX2 (Homo sapiens, UniProt Q96LB1); experiment: MRGPRX2 β-Arrestin assay; parameters: host or cells: PathHunter CHO-K1; details: PathHunter CHO-K1 MRGPRX2 β-Arrestin cell line; agonist Cortistatin 14 0.25 μM
T1 sequence (Q96LB1 1-330): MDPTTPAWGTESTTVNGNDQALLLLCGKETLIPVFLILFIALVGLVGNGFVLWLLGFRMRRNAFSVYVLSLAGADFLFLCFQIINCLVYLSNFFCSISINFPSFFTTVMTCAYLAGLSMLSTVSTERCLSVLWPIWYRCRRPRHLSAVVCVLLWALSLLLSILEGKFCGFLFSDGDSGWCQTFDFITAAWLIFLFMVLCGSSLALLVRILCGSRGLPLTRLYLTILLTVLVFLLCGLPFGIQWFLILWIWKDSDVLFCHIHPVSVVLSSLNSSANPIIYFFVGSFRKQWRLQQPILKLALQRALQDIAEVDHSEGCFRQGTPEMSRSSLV
From the text: Example C: MRGPRX2 β-Arrestin Assay
This assay measures compound inhibition of β-Arrestin recruitment, which is part of the G protein-independent pathway that results from the ligand-activated GPCR phosphorylation by specific GPCR kinases. The PathHunter CHO-K1 MRPGRX2 B-Arrestin Cell line stably expressing ProLink tagged MRGPRX2 and Enzyme Acceptor Tagged B-Arrestin was purchased from Eurofins DiscoverX, (Fremont, CA).
The cells were maintained in culture medium from the Europhins DiscoverX Cell Culture Kit-107 which includes FBS, hygromycin B and G418. For the assay, the cells were harvested and were resuspended with Cell Plating Reagent 2 (Eurofins DiscoverX). Cells were added 10000 cells in 25 µL/well to a 384-well black cell culture plate (Greiner VWR, Radnor, PA) which contained 125 nL/well of compound at a selected serially diluted concentration range or DMSO. The plate was incubated at 37° C. with 5% CO2 for 1 h. 2 μL/well of agonist Cortistatin 14 was diluted in Protein Dilution Buffer, (Eurofins DiscoverX) for a final concentration of 0.25 μM, was added and the plate was incubated at 37° C. with 5% CO2 for 90 min. 14 μL/well of Detection Reagent Mix (PathHunter Detection Kit, Eurofins DiscoverX) was added to the plates and further incubated for 1 h in the dark. Plates were read on the PHERAstar microplate reader (BMG Labtech Cary, NC) measuring luminescence 0.1 to 1 second per well. Data was normalized using DMSO only wells and wells with high concentration of reference antagonist as controls. Compound IC50 curves were globally fitted with 3- or 4-parameter Hill equation in a Genedata Screener (Genedata Basel, Switzerland).

MRGPRX2 [2] = biological target: T1, MRGPRX2; experiment: MRGPRX2 FLIPR calcium mobilization assay; parameters: host or cells: CHO-K1; details: CHO-K1 cells stably expressing human MRGPRX2; Ca2+ release, agonist Cortistatin-14 at EC80
Method: Example A. MRGPRX2 FLIPR Calcium Mobilization Assay
Chinese hamster ovary (CHO-K1) cells stably expressing human MRGPRX2 were purchased from Genescript (Piscataway, NJ). The cells were maintained in culture medium (Ham's F-12K) containing 10% (v/v) FBS, 200 μg/mL Zeocin, 100 units/mL penicillin G and 100 μg/mL streptomycin (Life Technologies, Carlsbad, CA). For the assay, the cells were harvested and resuspended with culture medium without Zeocin before plating at 8000 cells per well in 20 μL in 384-well black clear bottom cell culture plates (VWR, Radnor, PA). After 24 h culture at 37° C. and 5% CO2, the cells were loaded with 20 μL/well of calcium dye (FLIPR Calcium 6 Assay Kit, Molecular Devices, San Jose, CA) diluted in loading buffer (1×Hank's Balanced Salt Solution (HBSS), 5 mM probenecid, 20 mM 4-(2-hydroxyethyl)-1-piperazineethanesulfonic acid (HEPES), pH 7.4, VWR, Radnor, PA) followed with 45 min incubation at 37° C. and 40 min at room temperature in the dark. Cells were then treated with the addition of 10 uL/well test compounds with a range of increasing concentrations diluted in the assay buffer (1×HBSS, 20 mM HEPES, pH 7.4, VWR, Radnor, PA) with FLIPR Penta (Molecular Devices. San Jose, CA) and incubated for 30 min. at room temperature. Ca^2+ release was measured with FLIPR Penta with 10 seconds basal fluorescence measurement, then 12.5 μL of 5× agonist Cortistatin-14 (Tocris, Minneapolis, MN) at final concentration corresponding to the EC80 were added followed with continued fluorescence signal monitoring for an additional 110 seconds. The base line adjusted (median of first 10s base line) max value of the Relative Fluorescence Unit (RFU) was plotted against compound concentrations. Wells with no compound were served as the positive controls, and wells with high concentration of reference antagonist were used as negative controls. IC50 curves were globally fitted with 3- or 4-parameter Hill equation in a Genedata Screener (Genedata Basel, Switzerland).

MRGPRX2 [3] = biological target: T1, MRGPRX2; experiment: MRGPRX2 IP1 HTRF assay; parameters: host or cells: CHO-K1; details: CHO-K1 cells stably expressing human MRGPRX2; IP1 accumulation, agonist Cortistatin 14 1 μM

Row | Compound | IC50 (MRGPRX2 [1]) [nM] | IC50 (MRGPRX2 [2]) [nM] | IC50 (MRGPRX2 [3]) [nM]
1 | NS(=O)(=O)N1CCC(CNc2cc(C(F)(F)F)nc3ccc(F)cc23)(c2ccccc2)CC1 [Example 11, 4-(((6-Fluoro-2-(trifluoromethyl)quinolin-4-yl)amino)methyl)-4-phenylpiperidine-1-sulfonamide] | 0.1 to 100 | 0.1 to 100 | 0.1 to 100
2 | NS(=O)(=O)N1CC(CNc2cc(C(F)(F)F)nc3ccc(F)cc23)(n2cc(F)cn2)C1 [Example 10, 3-(4-Fluoro-1H-pyrazol-1-yl)-3-(((6-fluoro-2-(trifluoromethyl)quinolin-4-yl)amino)methyl)azetidine-1-sulfonamide] | 0.1 to 100 | 0.1 to 100 | 0.1 to 100
3 | NC(=O)N1CC(CNc2cc(C(F)(F)F)nc3ccc(Cl)cc23)(n2cc(Br)cn2)C1 [Example 41, 3-(4-Bromo-1H-pyrazol-1-yl)-3-(((6-chloro-2-(trifluoromethyl)quinolin-4-yl)amino)methyl)azetidine-1-carboxamide] | 0.1 to 100 | 0.1 to 100 | 0.1 to 100
4 | NS(=O)(=O)N1CC(CNc2cc(C(F)(F)F)nc3ccc(Cl)cc23)(n2ccc(F)n2)C1 [Example 18, 3-(((6-Chloro-2-(trifluoromethyl)quinolin-4-yl)amino)methyl)-3-(3-fluoro-1H-pyrazol-1-yl)azetidine-1-sulfonamide] | 0.1 to 100 | 0.1 to 100 | 0.1 to 100
5 | Nc1nc(N2CCC(CNc3cc(C(F)(F)F)nc4ccc(Cl)cc34)(c3ccccc3)CC2)nn1CCN1CCOCC1 [Example 79, N-((1-(5-Amino-1-(2-morpholinoethyl)-1H-1,2,4-triazol-3-yl)-4-phenylpiperidin-4-yl)methyl)-6-chloro-2-(trifluoromethyl)quinolin-4-amine] | 0.1 to 100 | 0.1 to 100 | –
6 | NS(=O)(=O)N1CC(CNc2cc(C(F)(F)F)nc3ccc(Cl)cc23)(c2ccc3ccccc3n2)C1 [Example 80, 3-(((6-Chloro-2-(trifluoromethyl)quinolin-4-yl)amino)methyl)-3-(quinolin-2-yl)azetidine-1-sulfonamide] | 100 to 1000 | 0.1 to 100 | 100 to 1000
7 | NS(=O)(=O)N1CC(CNc2cc(C(F)(F)F)nc3ccc(Cl)cc23)(c2ccc(Cl)cn2)C1 [Example 29, 3-(((6-Chloro-2-(trifluoromethyl)quinolin-4-yl)amino)methyl)-3-(5-chloropyridin-2-yl)azetidine-1-sulfonamide] | 0.1 to 100 | 0.1 to 100 | 0.1 to 100
8 | NC(=O)N1CC(CNc2cc(C(F)(F)F)nc3cc(F)ccc23)(c2ccc(F)cn2)C1 [Example 59, 3-(((7-Fluoro-2-(trifluoromethyl)quinolin-4-yl)amino)methyl)-3-(5-fluoropyridin-2-yl)azetidine-1-carboxamide] | 100 to 1000 | 0.1 to 100 | 100 to 1000
9 | NS(=O)(=O)N1CC(CNc2cc(C(F)(F)F)nc3ccc(Cl)cc23)(c2nc3cc(F)ccc3s2)C1 [Example 85, 3-(((6-Chloro-2-(trifluoromethyl)quinolin-4-yl)amino)methyl)-3-(5-fluorobenzo[d]thiazol-2-yl)azetidine-1-sulfonamide] | 0.1 to 100 | 0.1 to 100 | –
10 | [2H]C([2H])([2H])NC(=O)N1CC(CNc2cc(C(F)(F)F)nc3ccc(Br)cc23)(n2cc(F)cn2)C1 [Example 97, 3-(((6-Bromo-2-(trifluoromethyl)quinolin-4-yl)amino)methyl)-3-(4-fluoro-1H-pyrazol-1-yl)-N-(methyl-d3)azetidine-1-carboxamide] | 0.1 to 100 | – | 0.1 to 100
11 | NC(=O)C1(C(=O)NC2CC(CNc3cc(C(F)(F)F)nc4ccc(Cl)cc34)(c3ccccc3)C2)CC1 (centres unmarked) [Example 74, N-(3-(((6-Chloro-2-(trifluoromethyl)quinolin-4-yl)amino)methyl)-3-phenylcyclobutyl)cyclopropane-1,1-dicarboxamide] | 0.1 to 100 | – | 0.1 to 100

The remaining lines, values ahead:

Row | IC50 (MRGPRX2 [1]) [nM] | IC50 (MRGPRX2 [2]) [nM] | IC50 (MRGPRX2 [3]) [nM] | Compound
12 | 0.1 to 100 | 0.1 to 100 | 0.1 to 100 | Cc1ccc2nc(C(F)(F)F)cc(NCC3(c4ccc(F)cc4)CN(S(N)(=O)=O)C3)c2c1 [Example 2, 3-(4-Fluorophenyl)-3-(((6-methyl-2-(trifluoromethyl)quinolin-4-yl)amino)methyl)azetidine-1-sulfonamide]
13 | 0.1 to 100 | 0.1 to 100 | 0.1 to 100 | O=C(NC1CC(F)(F)C1)N1CC(CNc2cc(C(F)(F)F)nc3ccc(Cl)cc23)(c2ccc(F)cn2)C1 [Example 19, 3-(((6-Chloro-2-(trifluoromethyl)quinolin-4-yl)amino)methyl)-N-(3,3-difluorocyclobutyl)-3-(5-fluoropyridin-2-yl)azetidine-1-carboxamide]
14 | 0.1 to 100 | 0.1 to 100 | 0.1 to 100 | NS(=O)(=O)N1CC(CNc2cc(C(F)(F)F)nc3ccc(Br)cc23)(c2ccc(F)cc2)C1 [Example 3, 3-(((6-Bromo-2-(trifluoromethyl)quinolin-4-yl)amino)methyl)-3-(4-fluorophenyl)azetidine-1-sulfonamide]
15 | 0.1 to 100 | 0.1 to 100 | 0.1 to 100 | NS(=O)(=O)N1CC(CNc2cc(C(F)(F)C(F)(F)F)nc3ccc(Cl)cc23)(c2ccc(F)cc2)C1 [Example 4, 3-(((6-Chloro-2-(perfluoroethyl)quinolin-4-yl)amino)methyl)-3-(4-fluorophenyl)azetidine-1-sulfonamide]
16 | 0.1 to 100 | 0.1 to 100 | 0.1 to 100 | N#CN=C(N)N1CC(CNc2cc(C(F)(F)F)nc3ccc(Cl)cc23)(c2ccc(F)cc2)C1 [Example 7, 3-(((6-Chloro-2-(trifluoromethyl)quinolin-4-yl)amino)methyl)-N′-cyano-3-(4-fluorophenyl)azetidine-1-carboximidamide]
17 | 0.1 to 100 | 0.1 to 100 | 0.1 to 100 | Fc1ccc(C2(CNc3cc(C(F)(F)F)nc4ccc(Cl)cc34)COCCO2)cc1 (centres unmarked) [Example 53, 6-Chloro-N-((2-(4-fluorophenyl)-1,4-dioxan-2-yl)methyl)-2-(trifluoromethyl)quinolin-4-amine]
18 | 0.1 to 100 | 0.1 to 100 | 0.1 to 100 | CNC(=O)N1CCC(CNc2cc(C(F)(F)F)nc3ccc(Cl)cc23)(c2ccccc2)C1 (centres unmarked) [Example 14, 3-(((6-Chloro-2-(trifluoromethyl)quinolin-4-yl)amino)methyl)-N-methyl-3-phenylpyrrolidine-1-carboxamide]
19 | 0.1 to 100 | 0.1 to 100 | 0.1 to 100 | NC(=O)N1CC(CNc2cc(C(F)(F)F)nc3ccc(Cl)cc23)(c2ccc(F)cn2)C1 [Example 47, 3-(((6-Chloro-2-(trifluoromethyl)quinolin-4-yl)amino)methyl)-3-(5-fluoropyridin-2-yl)azetidine-1-carboxamide]

— patent US20250084063A1 (Incyte Corporation, priority 2023, published 2025)
